Assay type in all cases: in vivo
In test [1] the test system is broad leaf weeds (Lindernia pyxidaria and Monochoria vaginalis). As to the kind of experiment: Test Example 1: herbicidal effect test by treatment of rice paddy soil (immediately after seeding). The following applies: 120 g/10a active ingredient, dry weight vs untreated area, 14 days after treatment. An outline of the steps: (§1)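 Values are herbicidal rates (%) derived from average plant dry weight in treated versus untreated pots 14 days after treatment, run in duplicate. Treatment was a water-diluted emulsion dropped into flooded paddy soil right after sowing, at 120 g active ingredient per 10 ares.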

The subject of test [2] is Scirpus juncoides. The test is described as above. To be noted: 120 g/10a active ingredient, dry weight vs untreated area, 14 days after treatment. An outline of the steps: as §1
Test [3] concerns Echinochloa crus-galli. The test is described as above. The following applies: 120 g/10a active ingredient, dry weight vs untreated area, 14 days after treatment. An outline of the steps:
as §1

The subject of test [4] is broad leaf weeds (Lindernia pyxidaria and Monochoria vaginalis). As to the kind of experiment: Test Example 2: herbicidal effect test by treatment during growing period in paddy rice cultivation (seven days after seeding). The following applies: 120 g/10a active ingredient, assessed 14 days after treatment, dry weight vs untreated area. An outline of the steps: (§2)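 Post-emergence paddy water application: compounds were formulated as emulsions, diluted and dropped into flooded pots seven days after sowing at a rate equivalent to 120 g per 10 ares. Efficacy was taken as dry-weight reduction relative to untreated controls after 14 days.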

The subject of test [5] is Scirpus juncoides. The description is as above. The following applies: 120 g/10a active ingredient, assessed 14 days after treatment, dry weight vs untreated area. An outline of the steps:
as §2

Test [6] has as its system Echinochloa crus-galli. Described as above. To be noted: 120 g/10a active ingredient, assessed 14 days after treatment, dry weight vs untreated area. An outline of the steps: as §2
For test [7], the system named is Amaranthus viridis. Description: Test Example 4: herbicidal effect test by treatment of leave and stem in dry field farming (seven days after seeding). The following applies: 120 g/10a active ingredient; emulsion sprayed seven days after seeding; evaluated 14 days after treatment. An outline of the steps:
(§3)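 Weeds were seeded at 20 seeds per species into the top 1 cm of alluvial upland soil in pots, then sprayed 7 days after seeding with water-diluted emulsifiable concentrate at 100 L/10 a, giving 120 g active ingredient/10 a. Duplicate pots; herbicidal rate (%) was 14 days post-treatment, from dry weight versus untreated.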

Test [8] concerns southern crabgrass. The description is as above. The following applies: 120 g/10a active ingredient; emulsion sprayed seven days after seeding; evaluated 14 days after treatment. An outline of the steps: as §3
For test [9], the system named is Echinochloa crus-galli. The test is described as above. To be noted: 120 g/10a active ingredient; emulsion sprayed seven days after seeding; evaluated 14 days after treatment. An outline of the steps:
as §3

The test system of test [10] is Chenopodium album. The test is described as above. To be noted: 120 g/10a active ingredient; emulsion sprayed seven days after seeding; evaluated 14 days after treatment. An outline of the steps:
as §3

For test [11], the system named is Amaranthus viridis. Description: Test Example 3: herbicidal effect test by treatment of dry field farming soil (one day after seeding). To be noted: 120 g/10a active ingredient, evaluated 14 days after treatment. An outline of the steps:
(§4)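 Dry-field alluvium pots; weed seeds incorporated in top 1 cm; soil spray of diluted emulsion 1 d after seeding, 120 g a.i./10 a in 100 L/10 a. Readout: % reduction of dry weight vs untreated, day 14, duplicates.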

Test [12] has as its system southern crabgrass. Described as above. The following applies: 120 g/10a active ingredient, evaluated 14 days after treatment. An outline of the steps: as §4
For test [13], the system named is Echinochloa crus-galli. The description is as above. To be noted: 120 g/10a active ingredient, evaluated 14 days after treatment. An outline of the steps: as §4
For test [14], the system named is Chenopodium album. The test is described as above. To be noted: 120 g/10a active ingredient, evaluated 14 days after treatment. An outline of the steps: as §4

As to `COCC(C)n1oc(=O)c(Cc2ccccc2N(C(=O)C2CCCCC2)S(=O)(=O)C(F)(F)F)c1C` (stereo not shown) [Compound 1-434], the “Herbicidal rate (%) Lindernia pyxidaria” value in [1] and in test [4] was 90% each time. For the same compound, the “Herbicidal rate (%) Monochoria vaginalis” value in [1] and in test [4] was 90% each time. Also, the “Herbicidal rate (%) Scirpus juncoides” value with Scirpus juncoides [2] and with Scirpus juncoides [5] was 90% in each case. In addition, the “Herbicidal rate (%) Echinochloa crus-galli” value with Echinochloa crus-galli [3] and with Echinochloa crus-galli [6] was 90% throughout. Also, the “herbicidal effect (herbicidal rate), Amaranthus viridis” value (“herbicidal effect … Amaranthus viridis” below) in the test on Amaranthus viridis [7] came out at 40%. For the same compound, the “herbicidal effect (herbicidal rate), southern crabgrass” value (from here on “herbicidal effect … southern crabgrass”) in the test on southern crabgrass [8] stood at 90%. Further, the “herbicidal effect (herbicidal rate), Echinochloa crus-galli” value in the test on Echinochloa crus-galli [9] came to 90%. The “herbicidal effect (herbicidal rate), Chenopodium album” value (shortened to “herbicidal effect … Chenopodium album”) in the test on Chenopodium album [10] is 40%. The “herbicidal rate, Amaranthus viridis” value in the test on Amaranthus viridis [11] turned out to be 90%. Moreover, in the test with southern crabgrass [12], the “herbicidal rate, southern crabgrass” value is given as 90%. Also, the “herbicidal rate, Echinochloa crus-galli” value in the test with Echinochloa crus-galli [13] amounted to 90%. Further, in the test on Chenopodium album [14], the “herbicidal rate, Chenopodium album” value is listed as 90%.
Consider `CCC(C)n1oc(=O)c(Cc2ccccc2N(C(=O)COC)S(=O)(=O)C(F)(F)F)c1C` (stereo not shown) [Compound 1-444], for which the “Herbicidal rate (%) Lindernia pyxidaria” value in [1] and in test [4] was 90% in each case. The “Herbicidal rate (%) Monochoria vaginalis” value in test [1] and in test [4] was 90% in each case. In addition, the “Herbicidal rate (%) Scirpus juncoides” value with Scirpus juncoides [2] and in the test on Scirpus juncoides [5] was 90% in each case. Moreover, the “Herbicidal rate (%) Echinochloa crus-galli” value in the test with Echinochloa crus-galli [3] and with Echinochloa crus-galli [6] was 90% in each case. For the same compound, the “herbicidal effect … Amaranthus viridis” value in the test with Amaranthus viridis [7] was found to be 40%. Also, the “herbicidal effect … southern crabgrass” value in the test with southern crabgrass [8] is reported as 90%. In the test with Echinochloa crus-galli [9], the “herbicidal effect (herbicidal rate), Echinochloa crus-galli” value amounted to 90%. The “herbicidal effect … Chenopodium album” value in the test with Chenopodium album [10] amounted to 40%. Moreover, the “herbicidal rate, Amaranthus viridis” value in the test on Amaranthus viridis [11] worked out at 90%. Also, the “herbicidal rate, southern crabgrass” value with southern crabgrass [12] is listed as 90%. The “herbicidal rate, Echinochloa crus-galli” value in the test on Echinochloa crus-galli [13] is given as 90%. For the same compound, the “herbicidal rate, Chenopodium album” value in the test with Chenopodium album [14] turned out to be 90%.
`Cc1c(Cc2ccccc2N(C(=O)c2ccccc2)S(=O)(=O)C(F)(F)F)c(=O)on1C(C)(C)C` [Compound 1-473]: the “Herbicidal rate (%) Lindernia pyxidaria” value in test [1] and in [4] was 90% in each case. The “Herbicidal rate (%) Monochoria vaginalis” value in test [1] and in test [4] was 90% each time. Further, the “Herbicidal rate (%) Scirpus juncoides” value with Scirpus juncoides [2] and in the test on Scirpus juncoides [5] was 90% in each case. For the same compound, the “Herbicidal rate (%) Echinochloa crus-galli” value in the test with Echinochloa crus-galli [3] and in the test with Echinochloa crus-galli [6] was 90% throughout. Besides, the “herbicidal effect … Amaranthus viridis” value with Amaranthus viridis [7] is listed as 40%. For the same compound, the “herbicidal effect … southern crabgrass” value in the test on southern crabgrass [8] amounted to 90%. Besides, in the test with Echinochloa crus-galli [9], the “herbicidal effect (herbicidal rate), Echinochloa crus-galli” value is on record as 90%. The “herbicidal effect … Chenopodium album” value in the test on Chenopodium album [10] is recorded as 40%. In the test on Amaranthus viridis [11], the “herbicidal rate, Amaranthus viridis” value was 90%. For the same compound, in the test with southern crabgrass [12], the “herbicidal rate, southern crabgrass” value was 90%. Also, the “herbicidal rate, Echinochloa crus-galli” value in the test with Echinochloa crus-galli [13] was 90%. Besides, in the test with Chenopodium album [14], the “herbicidal rate, Chenopodium album” value turned out to be 90%.
Consider `CCC(C)n1oc(=O)c(Cc2ccccc2N(C(=O)c2ccccc2)S(=O)(=O)C(F)(F)F)c1C` (stereo not shown) [Compound 1-474], for which the “Herbicidal rate (%) Lindernia pyxidaria” value in test [1] and in [4] was 90% in each case. For the same compound, the “Herbicidal rate (%) Monochoria vaginalis” value in test [1] and in test [4] was 90% throughout. The “Herbicidal rate (%) Scirpus juncoides” value in the test on Scirpus juncoides [2] and in the test on Scirpus juncoides [5] was 90% throughout. Also, the “Herbicidal rate (%) Echinochloa crus-galli” value in the test on Echinochloa crus-galli [3] and in the test on Echinochloa crus-galli [6] was 90% throughout. Besides, in the test with Amaranthus viridis [7], the “herbicidal effect … Amaranthus viridis” value is given as 40%. Further, in the test on southern crabgrass [8], the “herbicidal effect … southern crabgrass” value is on record as 90%. Moreover, the “herbicidal effect (herbicidal rate), Echinochloa crus-galli” value in the test on Echinochloa crus-galli [9] is given as 90%. The “herbicidal effect … Chenopodium album” value in the test on Chenopodium album [10] stood at 40%. In the test with Amaranthus viridis [11], the “herbicidal rate, Amaranthus viridis” value was determined as 90%. Moreover, the “herbicidal rate, southern crabgrass” value with southern crabgrass [12] is on record as 90%. In the test with Echinochloa crus-galli [13], the “herbicidal rate, Echinochloa crus-galli” value came out at 90%. In addition, the “herbicidal rate, Chenopodium album” value in the test with Chenopodium album [14] was found to be 90%.

The values above are taken from US11109593B2, “Isoxazolin-5-one derivative and herbicide containing same as active ingredient” (HOKKO CHEMICAL INDUSTRY CO., LTD., priority 2017, dated 2021).
